Results: patent US4939092A, “Proteinaceous derivatives containing iron in highly bioavailable form, preparation thereof and pharmaceutical compositions containing them” (Unibois S.p.A., priority 1987, dated 1990)
Read-outs that look alike come from different tables or passages of the source.

Tests used:
[1] = Gastric tolerability: values of the lesions found on the gastric mucosa; details: for value of the lesions on the gastric mucosa / value of the lesions on the gastric mucosa, Media (mean): oral t.i.d., 100 mg/kg iron; for value of the lesions on the gastric mucosa, Media (mean): mean of 7 animals
Description: (§1) In the aim of correctly evaluating activity, bio-availability and toxicity of the products under exam, they were suitably vehicled by means of dissolution in mixtures of H2 O/propylene glycol/sorbitol, in equal proportions, so as to obtain for the experimental tests solutions at identical Fe^+++ titre (4 mg/ml).

[2] = Acute toxicity after oral administration in the male rat; assay type: in vivo; details: for N° DEAD ANIMALS: 10 animals
Description: ACUTE TOXICITY OF UB 1004 AFTER ORAL
ADMINISTRATION IN THE MALE RAT

[3] = Antianemic activity (iron-deficient diet); assay type: in vivo, rats; details: iron-deficient diet + substance
Description: as §1

[4] = oral, background; cited from earlier work
[5] = rat, in vivo, po, 100 mg/kg
Description: as §1

[6] = background; cited from earlier work
[7] = Solubility / precipitation; assay type: physicochemical
[8] = oral, 25 mg/Kg Fe = 367.5 mg/Kg
[9] = oral, 100 mg/Kg Fe = 1470 mg/Kg
[10] = oral, 200 mg/Kg Fe = 2940 mg/Kg
[11] = oral, 400 mg/Kg Fe = 5880 mg/Kg

Molecule: O=S(=O)([O-])[O-].[Fe+2] [FERROUS SULFATE, Ferrous Sulphate, reference compound]
- value of the lesions on the gastric mucosa ([1]; animal 1): 1
- value of the lesions on the gastric mucosa ([1]; animal 2): 2
- value of the lesions on the gastric mucosa ([1]; animal 3): 1
- value of the lesions on the gastric mucosa ([1]; animal 4): 1
- value of the lesions on the gastric mucosa ([1]; animal 5): 3
- value of the lesions on the gastric mucosa ([1]; animal 6): 1
- value of the lesions on the gastric mucosa ([1]; animal 7): 3
- gastric damage ([1]; conclusions): harmful at the gastric level
- value of the lesions on the gastric mucosa, Media (mean) [1]: 1.70
- toxicity ([2]; conclusions): considerably toxic
- ERYTHROCYTES ([3]; 7 (time unit not given)): 7.07 ± 0.76 10^6 /mm^3
- HEMOGLOBIN ([3]; 7 (time unit not given)): 14.38 ± 1.91 g/100 ml
- SYDEREMIA ([3]; 7 (time unit not given)): 247.6 ± 87.0 μg/100 ml
- ERYTHROCYTES ([3]; 14 (time unit not given)): 7.34 ± 0.46 10^6 /mm^3
- HEMOGLOBIN ([3]; 14 (time unit not given)): 15.63 ± 0.33 g/100 ml
- SYDEREMIA ([3]; 14 (time unit not given)): 198.4 ± 52.2 μg/100 ml
- ERYTHROCYTES ([3]; 21 (time unit not given)): 6.94 ± 0.42 10^6 /mm^3
- HEMOGLOBIN ([3]; 21 (time unit not given)): 14.09 ± 1.50 g/100 ml
- SYDEREMIA ([3]; 21 (time unit not given)): 171.0 ± 19.9 μg/100 ml

Molecule: Ferritin
- gastrointestinal side-effects [4]: does not have gastrointestinal side-effects
- value of the lesions on the gastric mucosa, Media (mean) [5]: 0.28
- water solubility [6]: hydrosoluble
- HEMOGLOBIN ([3]; 7 (time unit not given)): 13.88 ± 0.93 g/100 ml
- SYDEREMIA ([3]; 7 (time unit not given)): 196.3 ± 88.9 μg/100 ml
- ERYTHROCYTES ([3]; 14 (time unit not given)): 6.99 ± 0.58 10^6 /mm^3
- HEMOGLOBIN ([3]; 14 (time unit not given)): 15.46 ± 0.93 g/100 ml
- SYDEREMIA ([3]; 14 (time unit not given)): 217.1 ± 52.7 μg/100 ml
- ERYTHROCYTES ([3]; 21 (time unit not given)): 6.99 ± 0.13 10^6 /mm^3
- HEMOGLOBIN ([3]; 21 (time unit not given)): 14.43 ± 1.12 g/100 ml
- SYDEREMIA ([3]; 21 (time unit not given)): 227.6 ± 25.7 μg/100 ml

Molecule: UB 1004: iron (ferric) complex of lysozyme glutarate, obtained in Example 1(b) with ferric glycerophosphate
- value of the lesions on the gastric mucosa ([1]; animal 1): 0
- value of the lesions on the gastric mucosa ([1]; animal 2): 0
- value of the lesions on the gastric mucosa ([1]; animal 3): 0
- value of the lesions on the gastric mucosa ([1]; animal 4): 0
- value of the lesions on the gastric mucosa ([1]; animal 5): 0
- value of the lesions on the gastric mucosa ([1]; animal 6): 0
- value of the lesions on the gastric mucosa ([1]; animal 7): 0
- value of the lesions on the gastric mucosa, Media (mean) [1]: 0
- % DEATH-RATE [2, 8]: 0.00%
- N° DEAD ANIMALS [2, 8]: 0
- % DEATH-RATE ([2]; oral, 50 mg/Kg Fe = 735 mg/Kg): 0.00%
- N° DEAD ANIMALS ([2]; oral, 50 mg/Kg Fe = 735 mg/Kg): 0
- % DEATH-RATE [2, 9]: 0.00%
- N° DEAD ANIMALS [2, 9]: 0
- % DEATH-RATE [2, 10]: 0.00%
- N° DEAD ANIMALS [2, 10]: 0
- % DEATH-RATE [2, 11]: 0.00%
- N° DEAD ANIMALS [2, 11]: 0
- DL50 ([2]; oral, male rat, up to 400 mg/Kg Fe): NOT DETERMINABLE
- ERYTHROCYTES ([3]; 7 (time unit not given)): 7.20 ± 0.58 10^6 /mm^3
- HEMOGLOBIN ([3]; 7 (time unit not given)): 14.43 ± 1.13 g/100 ml
- SYDEREMIA ([3]; 7 (time unit not given)): 178.6 ± 57.1 μg/100 ml
- ERYTHROCYTES ([3]; 14 (time unit not given)): 7.20 ± 0.48 10^6 /mm^3
- HEMOGLOBIN ([3]; 14 (time unit not given)): 15.70 ± 1.00 g/100 ml
- SYDEREMIA ([3]; 14 (time unit not given)): 177.5 ± 42.8 μg/100 ml
- ERYTHROCYTES ([3]; 21 (time unit not given)): 7.13 ± 0.26 10^6 /mm^3
- HEMOGLOBIN ([3]; 21 (time unit not given)): 15.58 ± 0.97 g/100 ml
- SYDEREMIA ([3]; 21 (time unit not given)): 184.3 ± 31.8 μg/100 ml
- Precipitation with (NH4)2SO4 at 30% ([7]; (NH4)2SO4 30%): Complete
- Solubility at pH 8 [7]: Complete
- Solubility of the precipitate with (NH4)2SO4 in water ([7]; water): Complete

Molecule: lysozyme glutarate: lysozyme acylated with glutaric anhydride, Example 1(a)
- Solubility at pH 3 ([7]; pH 3): nil
- Solubility at pH 8 [7]: Complete
